# “Also recorded” adds a separate entry of the source.
# How the values were obtained:
# [1] = tested on: Oct4-IRES-Puro-Egfp MEFs; assay: Reprogramming of Oct4 reporter MEFs to iPSCs by PB transposition of Yamanaka factors (colony number); format: cell-based, mouse
# Description: To investigate the role of RA signalling in reprogramming, we cloned cDNAs of Oct4, Sox2, Klf4, cMyc, Rara and Rarg into a PB-MSCV vector where expression of the cDNAs was controlled by the MSCV LTR (FIG. 6A). Although exogenous c-Myc is not essential for reprogramming, omission of it reduces reprogramming efficiency and delays the process (23, 30). The individual PB-MSCV-cDNA vectors were co-transfected with a PB transposase plasmid into MEFs (FIG. 1A). PB transposition facilitates efficient integration of the PB transposon into the genome, thus ensuring stable expression of the cDNAs (31).
# (§1) ES cell pluripotency requires proper levels of Oct4 (Pou5f1) expression (32), and activation of Oct4 is known to be a crucial event in reprogramming (3). To monitor activation of the endogenous Oct4 locus in reprogramming and to allow unbiased assessment of iPSC quality, we made an Oct4 reporter mouse line where the IRES-Puro-GFP cassette was targeted to the 3′UTR of the Oct4 locus (FIG. 6B). The targeted ES cells were resistant to 2.0 μg/ml Puromycin (Puro) selection. These ES cells were not visibly green under fluorescent microscope but could be distinguished by flow cytometry (FIG. 6C). […] MEFs from the Oct4 reporter mice were thus used in all the MEF reprogramming experiments, and consequently, reprogramming and iPSC quality could be conveniently monitored and assessed by either Puro resistance or GFP expression in iPSCs.
# MEFs were prepared from 12.5 d.p.c. Oct4-IRES-Puro-Egfp embryos. To reduce embryo-to-embryo difference, MEFs from several embryos with the same genotype were mixed together for expansion in M10 media. MEFs were passaged once before they were counted, aliquoted and frozen down. Before electroporation, 1×10^6 MEFs were plated onto one gelatinized 15-cm tissue culture plate. When MEFs were 70-80% confluent, they were typsinized and collected for electroporation. M10: knockout DMEM, 10% foetal bovine serum (FBS, Hyclone), 1×GPS, 1× non-essential amino acids (NEAA, Invitrogen).
# MEFs transfection was performed using an Amaxa machine (Lonza) according to the manufacturer's protocol (program A-023). After electroporation, MEFs were seeded in M15 plus LIF on STO feeders. For Tet-On experiments, M15 containing Doxycycline (1.0 μg/ml) was added 24 hours after transfection and was changed every other day. iPSC colonies were usually picked at day 7 to day 10 to 96 well plates and cells were expanded according to standard mouse ES cell culture conditions.
# Mouse and human iPSC colonies were visualized by alkaline phosphatase staining using the Leukocyte Alkaline Phosphatase kit (Sigma).
# FIG. 1. RA signalling in reprogramming. A. Schematic of the reprogramming strategy by piggyBac (PB) transposition. Oct4 reporter MEFs were transfected with the PB-MSCV-cDNA transposon and transposase plasmids, and were plated directly onto STO feeders. ES-like colonies usually appeared in three weeks. M10 and M15 are media for MEFs and ES cells, respectively. B-C. Expressing Rara or Rarg, together with the four Yamanaka factors, drastically promoted reprogramming while inhibiting RA signalling by expressing Rara-DN blocked reprogramming. iPSC colonies were visualized by alkaline phosphatase staining. The reprogramming control was PB-PGK-Neo plus Yamanaka factors. **: P<0.005; ***: P<0.0005. FL: full-length cDNA; DN: dominant-negative form. D. Temporal requirement of RA signalling in reprogramming. Agonist of Rarg (CD437) was added at various stages of reprogramming. […]
# [2] = tested on: Oct4 locus; assay: iPSC quality by Puro resistance and GFP expression from the Oct4 locus (flow cytometry); format: cell-based, mouse; conditions: for quality of iPS cells, measured by FACS: agonist with four Yamanaka factors, up to 8 days
# Description: as §1
# Expression of the endogenous Oct4 is unstable in iPSCs reprogrammed by the four Yamanaka factors (11). […] Further analysis confirmed their partially reprogrammed status: low levels of endogenous pluripotency gene expression (FIG. 1E), and retention of substantial DNA methylation in the differentially methylated regions (DMRs) in the Nanog and Rex1 promoters (FIG. 1F). On the other hand, a small number of colonies were obtained which were resistant to 2.0 μg/ml Puro, and were similar to ES cells regarding pluripotency gene expression, demethylation at the Nanog and Rex1 promoters, and GFP expression (FIG. 1E-F and FIG. 6E). […] In subsequent experiments, we used resistance to 2.0 μg/ml Puro or GFP expression as surrogate criteria for pluripotency quality of mouse primary iPSCs reprogrammed from Oct4-Puro-GFP MEFs.
# Mouse iPSCs growing in 96 well feeder plates were trypsinized and resuspended in M15. iPSCs were spun down at 1,000 rpm for 3 minutes, and the medium was removed by putting the plate upside down on tissue. iPSCs were resuspended in PBS and analyzed by Cytomics FC-500 (Beckman Coulter).
# We cloned the four Yamanaka factors into the PB transposons separately where expression of each cDNA was controlled by the LTR of MSCV (PB-MSCV-cDNAs, FIG. 6c). These four transposons and the PB transposase (PBase) plasmid were subsequently transfected into Oct4-IRES-Puro-Egfp MEFs. iPS cell colonies resembling those of regular ES cells appeared in three weeks. Most iPS colonies survived 1.0 or 1.5 μg/ml Puro but very few were able to grow in 2.0 μg/ml Puro. […] RT-PCR and DMR sequencing confirmed that these iPS clones growing in 2.0 μg/mL Puro were more similar to regular ES cells than those clones selected by 1.0 or 1.5 μg/mL Puro in terms of pluripotent gene expression and DNA methylation at promoters of these genes (data not shown). […] We thus used 2.0 μg/mL or higher concentration of Puro in combination of flow cytometry to quantitatively evaluate iPS cell quality in the subsequent experiments.
# [3] = tested on: Rex1-Puro-IRES-Egfp knock-in mouse ES cell line; assay: RA induced ES cell differentiation, Puro selection; format: cell-based; conditions: all-trans retinoic acid; antagonist added or cDNA over-expressed
# Description: Insertion of this transposon into the mouse genome can either up-regulate genes near the insertion sites or disrupt them, depending on the structure of the insertion allele. To efficiently eliminate differentiated ES cells in the culture, we targeted the Puro-IRES-Egfp cassette to the Rex1 locus (FIG. 12b). Consequently, undifferentiated ES cells would be resistant to Puromycin (Puro) selection and GFP^+ in flow cytometry, while differentiated cells would be killed by Puro selection and become GFP^− due to rapid lose of Rex1 expression upon differentiation.
# A library of mutant ES cells were differentiated with 1.0 μM all-trans retinoic acid (RA) for 4 days and subsequently selected with Puromycin (FIG. 12c). Several Pura^r ES cell clones were identified from independent mutant ES cell pools. Splinkrette PCR analysis identified PB integration sites in genes encoding Rarg, Pparg and Gclc. For Pparg, PB insertion caused over-expression of the entire protein coding sequences. In contrast, Rarg locus had four independent PB insertions, all found in intron 9 (the last intron) (FIG. 12d). These PB insertions caused truncation of Rarg which misses amino acids encoded by exon 10. […] This truncated Rarg likely functioned as a dominant negative form of wild type Rarg (Rarg-DN).
# FIG. 12. […]
# [4] = tested on: Dox-independent human iPSCs; assay: Signalling dependency of human iPSCs (growth, qRT-PCR); format: cell-based; conditions: KSR-2i-LIF media
# Description: In contrast to dependence on Lif/Jak/Stat pathway for pluripotency maintenance in mouse ES cells, conventional human ES cells derived from embryos are cultured in media containing FGF2 (basic FGF), and LIF alone is insufficient to maintain pluripotency (44, 45). […] Conventional human ES cells are resistant to JAK inhibitor (JAKi) but are differentiated in the presence of BMP4. […] Finally, compared to human ES cells, our human iPSCs expressed lower levels of lineage specific genes such as PAX6, GATA6, and SOX17 in KSR-2i-LIF media (FIG. 5H).
# Human iPSCs reprogrammed by PB-CAG vectors were cultured in M15 media, with […] human recombinant LIF. Human iPSCs reprogrammed by PB-TRE vectors were maintained in DMEM/F12 with 1×GPS (Invitrogen), 20% Knockout Serum Replacement (Invitrogen), 1×NEAA, 0.1 mM β-mercaptoethanol (β-ME, Sigma) and two inhibitors, CHIR99021 (5 μM) and PD0325901 (1 μM).
# RNA was isolated using the RNeasy Mini Kit (Qiagen). The samples were subsequently quantified and treated with gDNA WipeOut. First-strand cDNA was prepared using the QuantiTect Reverse Transcription Kit (Qiagen). For each RT-PCR reaction, we used 50-100 ng of cDNA and primers listed in Supplementary Table 5. Standard PCR conditions were: 94° C. for 30 s, 60° C. for 30 s, 68° C. for 30 s; X 30 cycles. For real-time PCR, we used Taqman Gene Expression Assays. Taqman probes were either purchased from Applied Biosciences (Supplementary Table 6). All quantitative PCR was performed in a […] Fast Real-Time PCR System (Applied Biosciences). Mouse gene expression was determined relative to mouse Gadph using the ΔCt method. Human gene expression was determined relative to human GADPH gene using the ΔCt method.
# FIG. 5. Production and characterization of Dox-independent unique human iPSCs. A. Conservation of RAREoct sequence in several mammalian species. B. Reprogramming HDFn cells using the Tet-On six-factor platform. PB-TRE-cDNA transposon, PB-CAG-rtTA and transposase plasmids were transfected into HDFs which were plated onto STO feeders. Dox (2.0 μg/ml) was added 24 hours post transfection. Dox induction usually lasted for 15-20 days. Colonies were picked for expansion at up to 30 days after transfection. Alternatively, immediately once Dox was removed, colonies were trypsinized and re-plated to a new feeder plate for secondary colony formation. C. Typical human iPSC colony morphology and AP staining. Scale bars: 10.0 μm. D. qRT-PCR analysis of pluripotency genes in parental HDFn, human iPSCs and H1 hESC cells. HiPS15-5 and -10 were two Dox-independent iPSC lines generated from one transfection. […] H. Signalling dependency of human iPSCs measured by gene expression (qRT-PCR). […] Quantitative analysis of gene expression was performed relative to GADPH. […]
compound,measurement,setting,value
CC1(C)CCC(C)(C)c2cc(C(=O)Nc3ccc(C(=O)O)cc3)ccc21 [Am580],reprogramming efficiency,"[1]; administrated for 8 days, with four Yamanaka factors",improved reprogramming efficiency
same,"quality of iPS cells, measured by FACS",[2],little effect
O=C(O)c1ccc2cc(-c3ccc(O)c(C45CC6CC(CC(C6)C4)C5)c3)ccc2c1 [CD437],iPS cell colony number,"[1]; 100 nM for up to eight day, with four Yamanaka factors",greatly increased
same,reprogramming of MEFs to iPSCs,"[1]; added to culture media at recommended concentration for 4 or 8 days, with four Yamanaka factors",drastically increased
same,iPS colony number,[1]; treatment beyond 8 days (day 1-12),substantially reduced
same,reprogramming efficiency,[1]; treatment beyond 8 days after transfection,reduced reprogramming efficiency
same,GFP expression from the Oct4 locus in colonies (iPSC quality),[2]; CD437 day 1-4,expressed GFP; also recorded: Improvement of iPSC quality
same,survival of Puro selection,"[2]; CD437 day 1-4, 2.0 μg/ml Puro",survived 2.0 μg/ml Puro selection
same,"quality of iPS cells, measured by FACS",[2],significantly improved
COCCOCOc1cc2ccc(-c3ccc(C(=O)O)cc3)cc2cc1C12CC3CC(CC(C3)C1)C2 [CD2665],quality of partially reprogrammed clones,"[2]; 10 μM, two independent partially reprogrammed clones",significantly improved
same,effect on quality of partially reprogrammed clones,"[2]; 10 μM, used together with 5-Aza",more obvious
same,GFP status of partially reprogrammed clones,"[2]; after treatment for 4 days, with or without 5-Aza",largely GFP negative
same,ES cell differentiation induced by RA,[3],block ES cell differentiation
CC(C)(C)c1nc2c3cc[nH]c(=O)c3c3cc(F)ccc3c2[nH]1 [JAK inhibitor],growth and pluripotency gene expression of human iPSCs in the presence of the agent,[4],lost expression of OCT4 and NANOG and were rapidly differentiated
CCCCCCCOc1cc2c(cc1/C(C)=C/c1ccc(C(=O)O)cc1)C(C)(C)CCS2(=O)=O [Ro-41-5253],ES cell differentiation induced by RA,[3],block ES cell differentiation
Cc1c[nH]c(/C=C2\C(=O)Nc3ccccc32)c1CCC(=O)O [SU54021],growth and pluripotency gene expression of human iPSCs in the presence of the agent,[4],grew well and kept pluripotency gene expression
same,growth and pluripotency gene expression of human iPSCs in the presence of the agent,[4]; listed as FGFRi,Robust expression of pluripotency genes
BMP4: BMP4 added to human iPSC culture,growth and pluripotency gene expression of human iPSCs in the presence of the agent,[4],proliferated well

# Source: patent publication US9512407B2, “Cells and methods for obtaining them” (GENOME RESEARCH LIMITED, priority 2009, dated 2016)
